Reference: publication PMC11547452, “Synthesis of New Pyrazolo[3,4-d]pyrimidine Derivatives: NMR Spectroscopic Characterization, X-Ray, Hirshfeld Surface Analysis, DFT, Molecular Docking, and Antiproliferative Activity Investigations” (Molecules, 2024)

Tests used:
[1] = system: HCT 116, HepG2, and MCF-7 cell lines; test: MTT antiproliferative assay, summary over the tested cell lines; format: cell-based; details: across the tested cancer cell lines
Description: (§1) The antiproliferative activity of P1–P4 was evaluated by the MTT standard assay and sunitinib (a well-known FDA-approved multi-kinase inhibitor) as a reference against HCT 116, HepG2, and MCF-7 cell lines, and WI38 normal cell line. […] The antiproliferative activity of P1–P4 was assessed by using an MTT standard assay and sunitinib drug towards HCT 116, HepG2, MCF-7 cells, and WI38 normal cell line using the previously described methodology.

HepG2 = test: MTT antiproliferative assay, HepG2; format: cell-based; details: Homo sapiens, three different experiments, read-out: In Vitro Cytotoxicity IC50
Description: as §1

HCT 116 = test: MTT antiproliferative assay, HCT 116; format: cell-based; details: Homo sapiens, three different experiments, read-out: In Vitro Cytotoxicity IC50
Description: as §1

[2] = MTT cytotoxicity assay, WI38 normal cell line; format: cell-based; details: human, WI38 normal cells; WI38 normal cell line; MTT; three different experiments; read-out: In Vitro Cytotoxicity IC50
Description: as §1

MCF-7 = test: MTT antiproliferative assay, MCF-7; format: cell-based; details: Homo sapiens, MCF7, three different experiments, read-out: In Vitro Cytotoxicity IC50
Description: as §1

WI38 normal cell line = test: MTT cytotoxicity assay, WI38 normal cell line; format: cell-based; details: cancer cell lines vs WI38 normal cell line; formula not given
Description: as §1

Structure (SMILES)	IC50 [1]	IC50 (HepG2)	IC50 (HCT 116)	IC50 [2]	IC50 (MCF-7)	melting point	Selectivity Index (WI38 normal cell line)
Cc1nn(-c2ccccc2)c2nc[nH]c(=O)c12 [Compound P1, 3-methyl-1-phenyl-1,5-dihydro-4H-pyrazolo[3,4-d]pyrimidin-4-one]	22.7 to 40.8 µM	22.7 ± 1.7 µM	28.9 ± 2.1 µM	85.7 ± 4.7 µM	36.3 ± 2.6 µM	153 to 155 °C	–
Cc1nn(-c2ccccc2)c2ncn(C)c(=O)c12 [Compound P2, 3,5-Dimethyl-1-phenyl-1,5-dihydro-4H-pyrazolo[3,4-d]pyrimidin-4-one]	22.7 to 40.8 µM	31.9 ± 2.1 µM	38.7 ± 2.3 µM	> 100 µM	40.8 ± 2.4 µM	143 to 145 °C	–
C#CCn1cnc2c(c(C)nn2-c2ccccc2)c1=O [Compound P3, 3-Methyl-1-phenyl-5-(prop-2-yn-1-yl)-1,5-dihydro-4H-pyrazolo[3,4-d]pyrimidin-4-one]	> 67 µM	88.6 ± 4.7 µM	89.9 ± 4.5 µM	52.5 ± 3.1 µM	85.2 ± 4.4 µM	155 to 157 °C	1.67
Cc1nn(-c2ccccc2)c2ncn(CC(=O)c3ccccc3)c(=O)c12 [Compound P4, 3-Methyl-5-(2-oxo-2-phenylethyl)-1-phenyl-1,5-dihydro-4H-pyrazolo[3,4-d]pyrimidin-4-one]	> 67 µM	66.8 ± 3.8 µM	92.5 ± 4.9 µM	44 ± 2.6 µM	> 100 µM	–	–
CCN(CC)CCNC(=O)c1c(C)[nH]c(/C=C2\C(=O)Nc3ccc(F)cc32)c1C [Sunitinib, sunitinib, reference compound]	–	–	–	55.6 ± 3.3 µM	–	–	0.30
